Active and inactive are the calls of the source.
Assays:
[1] = biological target: T1, Beta-lactamase (Pseudomonas aeruginosa, UniProt Q79MP6); experiment: […] counterscreen for selective VIM-2 inhibitors: dose response biochemical high throughput screening assay to identify inhibitors of IMP-1 metallo-beta-lactamase.
[2] = biological target: Beta-lactamase (Salmonella choleraesuis (strain SC-B67), UniProt Q5J463); experiment: Epi-absorbance-based counterscreen for selective VIM-2 inhibitors: dose response biochemical high throughput screening assay to identify inhibitors of TEM-1 serine-beta-lactamase.
Chain of Beta-lactamase (Salmonella choleraesuis (strain SC-B67), UniProt Q5J463) (Q5J463 whole entry): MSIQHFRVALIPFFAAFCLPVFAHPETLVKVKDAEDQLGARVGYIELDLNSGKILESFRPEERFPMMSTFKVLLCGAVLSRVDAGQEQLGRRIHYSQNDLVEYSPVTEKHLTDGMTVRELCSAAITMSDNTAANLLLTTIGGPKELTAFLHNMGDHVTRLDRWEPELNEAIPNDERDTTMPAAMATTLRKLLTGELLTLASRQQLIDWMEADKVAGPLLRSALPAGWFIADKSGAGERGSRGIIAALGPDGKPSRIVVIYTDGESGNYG

[3] = biological target: T1, Beta-lactamase; experiment: inhibition of IMP-1 beta-lactamase activity – biochemical, epi-absorbance, selectivity assay for VIM-2 inhibitor project, dose response (AID 1920)
[4] = biological target: Disintegrin and metalloproteinase domain-containing protein 17 (Homo sapiens, UniProt P78536); experiment: exosite inhibitors of ADAM17, dose response, biochemical (AID 743260)
Chain of Disintegrin and metalloproteinase domain-containing protein 17 (P78536 whole entry, the tested form may be a part): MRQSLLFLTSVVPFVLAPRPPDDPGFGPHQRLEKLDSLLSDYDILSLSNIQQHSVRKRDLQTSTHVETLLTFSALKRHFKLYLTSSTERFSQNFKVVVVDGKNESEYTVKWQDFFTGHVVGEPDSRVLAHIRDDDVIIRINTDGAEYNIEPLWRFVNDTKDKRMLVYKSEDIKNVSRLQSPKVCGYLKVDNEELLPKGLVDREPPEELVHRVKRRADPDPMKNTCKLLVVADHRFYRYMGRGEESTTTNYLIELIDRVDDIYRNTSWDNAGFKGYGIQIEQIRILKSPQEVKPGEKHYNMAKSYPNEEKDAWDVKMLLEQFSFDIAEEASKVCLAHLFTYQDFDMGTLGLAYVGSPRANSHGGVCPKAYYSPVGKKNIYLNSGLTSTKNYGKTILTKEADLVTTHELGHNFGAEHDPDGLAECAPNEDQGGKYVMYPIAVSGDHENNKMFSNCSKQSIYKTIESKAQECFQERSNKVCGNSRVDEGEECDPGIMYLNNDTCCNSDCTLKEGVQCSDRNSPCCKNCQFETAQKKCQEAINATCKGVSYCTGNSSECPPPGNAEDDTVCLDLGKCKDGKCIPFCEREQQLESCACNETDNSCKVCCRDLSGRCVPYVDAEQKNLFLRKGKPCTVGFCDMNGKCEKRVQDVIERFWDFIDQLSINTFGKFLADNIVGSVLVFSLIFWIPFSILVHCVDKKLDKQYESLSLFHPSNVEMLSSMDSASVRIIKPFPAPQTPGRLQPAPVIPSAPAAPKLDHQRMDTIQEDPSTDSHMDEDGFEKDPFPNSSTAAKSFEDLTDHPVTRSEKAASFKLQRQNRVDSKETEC

[5] = inhibition of ADAM10 peptide cleavage – biochemical, FRET peptide substrate, recombinant human ADAM10, selectivity assay for ADAM17 exosite inhibitor project, dose response (AID 743259);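 note: ADAM10 enzyme cleaving a FRET peptide substrate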
[6] = biological target: T2, Trace amine-associated receptor 1 (Homo sapiens, UniProt Q96RJ0); experiment: Counterscreen for antagonists of the human trace amine associated receptor 1 (hTAAR1): Fluorescence-based cell-based high throughput dose response assay to identify TAAR1 Agonists.; assay type: functional
T2 sequence (Q96RJ0 whole entry): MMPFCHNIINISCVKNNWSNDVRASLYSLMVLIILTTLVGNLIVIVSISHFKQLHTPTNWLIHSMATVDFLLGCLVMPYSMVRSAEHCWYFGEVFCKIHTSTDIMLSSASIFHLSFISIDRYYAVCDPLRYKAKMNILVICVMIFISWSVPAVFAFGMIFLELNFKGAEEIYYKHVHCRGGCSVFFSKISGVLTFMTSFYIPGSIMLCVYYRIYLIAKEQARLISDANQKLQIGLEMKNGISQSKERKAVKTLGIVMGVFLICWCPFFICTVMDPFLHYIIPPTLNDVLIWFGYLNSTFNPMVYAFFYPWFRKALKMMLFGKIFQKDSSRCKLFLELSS

[7] = Counterscreen for antagonists of the human trace amine associated receptor 1 (hTAAR1): Fluorescence-based cell-based high throughput dose response assay to identify nonselective Ga16 antagonists.; assay type: functional
[8] = Counterscreen for […] of the human trace amine associated receptor 1 (TAAR1): Fluorescence-based cell-based high throughput dose response assay to identify nonselective Ga16 agonists.; assay type: functional
[9] = biological target: T2, Trace amine-associated receptor 1; experiment: Fluorescence-based cell-based high throughput dose response assay to identify antagonists of the human trace amine associated receptor 1 (TAAR1).; assay type: functional
[10] = biological target: Matrix metalloproteinase-14 (Homo sapiens, UniProt P50281); experiment: Dose Response confirmation of uHTS hits for a small molecule inhibitors of MT1-MMP activation in a fluorescence assay set 1.; assay type: functional
[11] = Counterscreen for activators of the function of SWI/SNF related, matrix associated, actin dependent regulator of chromatin, subfamily a, member 2 (SMARCA2, BRM): Luminescence-based cell-based high throughput dose response assay to identify non-selective compounds using the VP16 reporter assay.; assay type: functional
[12] = biological target: SWI/SNF-related matrix-associated actin-dependent regulator of chromatin subfamily A member 2 (Homo sapiens, UniProt P51531); experiment: Luminescence-based cell-based high throughput dose response assay to identify activators of the function of SWI/SNF related, matrix associated, actin dependent regulator of chromatin, subfamily a, member 2 (SMARCA2, BRM).; assay type: functional
Chain of SWI/SNF-related matrix-associated actin-dependent regulator of chromatin subfamily A member 2 (P51531 whole entry): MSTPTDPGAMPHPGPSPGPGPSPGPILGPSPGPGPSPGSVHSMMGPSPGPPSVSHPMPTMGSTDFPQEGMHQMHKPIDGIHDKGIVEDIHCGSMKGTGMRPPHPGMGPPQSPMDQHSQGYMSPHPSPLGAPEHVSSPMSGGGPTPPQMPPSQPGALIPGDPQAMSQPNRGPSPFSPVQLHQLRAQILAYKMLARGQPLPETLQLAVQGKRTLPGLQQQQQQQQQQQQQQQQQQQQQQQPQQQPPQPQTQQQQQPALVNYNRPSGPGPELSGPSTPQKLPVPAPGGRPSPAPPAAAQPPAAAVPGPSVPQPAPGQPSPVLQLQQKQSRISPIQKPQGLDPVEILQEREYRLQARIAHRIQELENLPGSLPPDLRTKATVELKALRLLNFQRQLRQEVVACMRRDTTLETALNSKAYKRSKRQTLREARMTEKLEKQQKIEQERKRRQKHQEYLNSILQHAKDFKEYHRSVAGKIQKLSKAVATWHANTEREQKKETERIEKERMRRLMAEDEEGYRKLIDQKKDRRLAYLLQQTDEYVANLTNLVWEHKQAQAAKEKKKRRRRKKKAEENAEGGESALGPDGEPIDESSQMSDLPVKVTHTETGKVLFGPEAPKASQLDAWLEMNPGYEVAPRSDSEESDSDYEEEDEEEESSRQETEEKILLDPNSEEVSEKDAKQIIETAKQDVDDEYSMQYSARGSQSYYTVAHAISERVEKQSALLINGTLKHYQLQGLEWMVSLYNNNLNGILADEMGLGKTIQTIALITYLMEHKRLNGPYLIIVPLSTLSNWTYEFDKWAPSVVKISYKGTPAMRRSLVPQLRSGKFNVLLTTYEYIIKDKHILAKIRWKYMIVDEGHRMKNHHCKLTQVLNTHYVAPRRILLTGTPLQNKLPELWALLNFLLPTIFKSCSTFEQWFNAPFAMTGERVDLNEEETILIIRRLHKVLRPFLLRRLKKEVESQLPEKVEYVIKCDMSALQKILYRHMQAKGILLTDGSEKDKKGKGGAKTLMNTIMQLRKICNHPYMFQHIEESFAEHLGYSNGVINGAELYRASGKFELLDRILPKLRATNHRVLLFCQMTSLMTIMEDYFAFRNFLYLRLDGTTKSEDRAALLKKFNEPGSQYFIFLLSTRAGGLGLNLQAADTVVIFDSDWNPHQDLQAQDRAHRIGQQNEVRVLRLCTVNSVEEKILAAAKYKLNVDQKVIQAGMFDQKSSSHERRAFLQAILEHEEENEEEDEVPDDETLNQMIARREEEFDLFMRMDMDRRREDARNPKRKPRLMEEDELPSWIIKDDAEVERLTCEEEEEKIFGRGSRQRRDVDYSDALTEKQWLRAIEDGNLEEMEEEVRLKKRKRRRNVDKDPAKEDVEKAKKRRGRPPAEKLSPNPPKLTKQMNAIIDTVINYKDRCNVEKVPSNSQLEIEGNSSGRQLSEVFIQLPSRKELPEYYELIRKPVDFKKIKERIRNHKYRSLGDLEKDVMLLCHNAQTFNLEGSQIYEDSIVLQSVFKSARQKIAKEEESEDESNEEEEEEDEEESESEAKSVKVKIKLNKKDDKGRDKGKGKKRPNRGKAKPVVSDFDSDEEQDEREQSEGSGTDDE

[13] = viability loss in HeLa cells – cytotoxicity control for MgcRacGAP inhibitor project, dose response (AID 624300); assay type: functional
[14] = biological target: T3, Rac GTPase-activating protein 1 (Homo sapiens, UniProt Q9H0H5); experiment: blockers of MgcRacGAP-driven Rac1 GTP hydrolysis – biochemical, ADP Hunter fluorescence, primary and confirmatory, confirmation (AID 624330); assay type: functional
T3 sequence (Q9H0H5 whole entry): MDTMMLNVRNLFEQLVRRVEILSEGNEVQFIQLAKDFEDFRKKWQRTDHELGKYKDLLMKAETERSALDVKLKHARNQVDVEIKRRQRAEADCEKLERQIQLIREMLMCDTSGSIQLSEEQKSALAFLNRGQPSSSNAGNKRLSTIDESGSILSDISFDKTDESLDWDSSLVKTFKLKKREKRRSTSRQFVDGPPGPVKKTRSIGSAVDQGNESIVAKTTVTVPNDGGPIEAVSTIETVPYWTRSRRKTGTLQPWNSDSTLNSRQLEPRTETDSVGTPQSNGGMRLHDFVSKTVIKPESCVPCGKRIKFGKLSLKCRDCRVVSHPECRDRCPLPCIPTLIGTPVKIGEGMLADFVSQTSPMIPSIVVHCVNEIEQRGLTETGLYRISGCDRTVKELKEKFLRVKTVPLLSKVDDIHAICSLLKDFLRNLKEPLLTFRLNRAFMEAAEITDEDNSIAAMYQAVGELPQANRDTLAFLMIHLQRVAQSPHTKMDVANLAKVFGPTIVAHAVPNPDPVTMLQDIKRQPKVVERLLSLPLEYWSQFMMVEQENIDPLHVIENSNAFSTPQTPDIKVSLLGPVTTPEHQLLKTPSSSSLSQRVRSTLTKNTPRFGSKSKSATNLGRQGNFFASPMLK

T1 sequence (Q79MP6 whole entry): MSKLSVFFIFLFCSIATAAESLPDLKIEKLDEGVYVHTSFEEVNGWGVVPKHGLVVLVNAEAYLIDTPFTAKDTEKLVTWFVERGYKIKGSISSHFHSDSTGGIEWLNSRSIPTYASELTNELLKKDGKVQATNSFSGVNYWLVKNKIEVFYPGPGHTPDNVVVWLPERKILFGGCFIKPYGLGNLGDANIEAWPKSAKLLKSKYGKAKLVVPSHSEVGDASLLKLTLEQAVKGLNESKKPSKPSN

**Q.** Which IC50 [1] does the source give for `COCC(C)NC(=O)c1cc2cccc([N+](=O)[O-])c2[nH]1` (centres undefined) here?
**A.** Its IC50 is > 59.6 µM (inactive).

**Q.** What about the IC50 [2] of the same molecule?
**A.** Its IC50 is > 59.6 µM (inactive).

**Q.** What about the IC50 [3] of the same molecule?
**A.** The IC50 was > 59.6 µM (inactive).

**Q.** Which results are given for `CCSc1nsc(NC(=O)Nc2cccc(OC)c2)n1`?
**A.** IC50 [4]: > 69.5 µM (inactive); IC50 [5]: > 69.5 µM (inactive)

**Q.** With `CN1CCN(c2ncnc3c2c(-c2ccccc2)cn3-c2ccc(F)cc2)CC1` as the molecule, how does the EC50 [6] read?
**A.** Its EC50 is 10 µM (inactive).

**Q.** And the IC50 [7]?
**A.** Its IC50 is > 29.9 µM (inactive).

**Q.** What about the EC50 [8] of the same molecule?
**A.** Its EC50 is > 29.9 µM (inactive).

**Q.** And the IC50 [9]?
**A.** The IC50 was 3.17 µM (active).

**Q.** Which IC50 [10] does the source give for `Cc1cccc[n+]1CC(=O)/C=C1\N(C)c2ccccc2C1(C)C` here?
**A.** Its IC50 is 24.1 µM (inactive).

**Q.** Which EC50 [11] does the source give for `COc1ccc(-c2nnc(-c3ccc(N(C)C)cc3)o2)cc1` here?
**A.** Its EC50 is > 91.2 µM (inactive).

**Q.** What about the EC50 [12] of the same molecule?
**A.** Its EC50 is > 91.2 µM (inactive).

**Q.** With `Nc1nc(S)c2[nH]c(S)nc2n1` as the molecule, how does the CC50 [13] read?
**A.** The CC50 was 100 µM (active).

**Q.** What about the IC50 [14] of the same molecule?
**A.** The IC50 was 112 µM (active).

— ChEMBL document CHEMBL1201862, “PubChem BioAssay data set” (2004)
